PubChem BioAssay AID1259407 (Chemical Carcinogenesis Research Information System (CCRIS), 2018)
Activity calls are given as the source filed them. How the calls were made is not given here.

Tested on: CCRIS mutagenicity, Ames/micronucleus/aberration tests
Assay: CCRIS mutagenicity studies
[1] = Test System: AMES SALMONELLA TYPHIMURIUM, Strain/Indicator: TA98, Metabolic Activation: NONE, Method: PREINCUBATION
[2] = Test System: AMES SALMONELLA TYPHIMURIUM, Strain/Indicator: TA100, Metabolic Activation: NONE, Method: PREINCUBATION
[3] = Test System: AMES SALMONELLA TYPHIMURIUM, Strain/Indicator: TA98, Metabolic Activation: NONE, Method: STANDARD PLATE

## O[C@@H]1[C@@H]2O[C@@H]2c2c(ccc3cc4ccc5ccccc5c4nc23)[C@H]1O
[1]
  mutagenic call: active; positive
[2]
  mutagenic call: active; positive
Test System: CHINESE HAMSTER V-79, Strain/Indicator: V-79/8-AZAGUANINE, Metabolic Activation: NONE, Method: STANDARD PLATE
  mutagenic call: active; positive

## Cc1ccc(N)cc1Cl
[3]
  mutagenic call: inactive; negative
Test System: AMES SALMONELLA TYPHIMURIUM, Strain/Indicator: TA98, Metabolic Activation: RAT, LIVER, S-9, AROCLOR 1254, Method: STANDARD PLATE
  mutagenic call: inactive; negative
Test System: AMES SALMONELLA TYPHIMURIUM, Strain/Indicator: TA100, Metabolic Activation: NONE, Method: STANDARD PLATE
  mutagenic call: inactive; negative
Test System: AMES SALMONELLA TYPHIMURIUM, Strain/Indicator: TA100, Metabolic Activation: RAT, LIVER, S-9, AROCLOR 1254, Method: STANDARD PLATE
  mutagenic call: inactive; negative
Test System: AMES SALMONELLA TYPHIMURIUM, Strain/Indicator: TA1535, Metabolic Activation: NONE, Method: STANDARD PLATE
  mutagenic call: inactive; negative
Test System: AMES SALMONELLA TYPHIMURIUM, Strain/Indicator: TA1535, Metabolic Activation: RAT, LIVER, S-9, AROCLOR 1254, Method: STANDARD PLATE
  mutagenic call: inactive; negative
Test System: AMES SALMONELLA TYPHIMURIUM, Strain/Indicator: TA1537, Metabolic Activation: NONE, Method: STANDARD PLATE
  mutagenic call: inactive; negative
Test System: AMES SALMONELLA TYPHIMURIUM, Strain/Indicator: TA1537, Metabolic Activation: RAT, LIVER, S-9, AROCLOR 1254, Method: STANDARD PLATE
  mutagenic call: inactive; negative
Test System: AMES SALMONELLA TYPHIMURIUM, Strain/Indicator: TA1538, Metabolic Activation: NONE, Method: STANDARD PLATE
  mutagenic call: inactive; negative
Test System: AMES SALMONELLA TYPHIMURIUM, Strain/Indicator: TA1538, Metabolic Activation: RAT, LIVER, S-9, AROCLOR 1254, Method: STANDARD PLATE
  mutagenic call: inactive; negative
Test System: CHINESE HAMSTER OVARY, Strain/Indicator: CHO-K1-BH4 (HPRT)/6-THIOGUANINE, Metabolic Activation: NONE
  mutagenic call: inactive; negative
Test System: CHINESE HAMSTER OVARY, Strain/Indicator: CHO-K1-BH4 (HPRT)/6-THIOGUANINE, Metabolic Activation: RAT, LIVER, S-9, AROCLOR 1254
  mutagenic call: inactive; negative

## COc1ccc(CCC(=O)c2c(O)cc(O[C@@H]3O[C@H](CO)[C@@H](O)[C@H](O)[C@H]3O[C@@H]3O[C@@H](C)[C@H](O)[C@@H](O)[C@H]3O)cc2O)cc1O
Test System: AMES SALMONELLA TYPHIMURIUM, Strain/Indicator: TA97, Metabolic Activation: HAMSTER, LIVER, S-9, AROCLOR 1254 (10 OR 30%), Method: PREINCUBATION
  mutagenic call: inactive; negative
Test System: AMES SALMONELLA TYPHIMURIUM, Strain/Indicator: TA97, Metabolic Activation: NONE, Method: PREINCUBATION
  mutagenic call: inactive; negative
Test System: AMES SALMONELLA TYPHIMURIUM, Strain/Indicator: TA97, Metabolic Activation: RAT, LIVER, S-9, AROCLOR 1254 (10 OR 30%), Method: PREINCUBATION
  mutagenic call: inactive; negative
Test System: AMES SALMONELLA TYPHIMURIUM, Strain/Indicator: TA98, Metabolic Activation: HAMSTER, LIVER, S-9, AROCLOR 1254 (10 OR 30%), Method: PREINCUBATION
  mutagenic call: inactive; negative
[1]
  mutagenic call: inactive; negative
Test System: AMES SALMONELLA TYPHIMURIUM, Strain/Indicator: TA98, Metabolic Activation: RAT, LIVER, S-9, AROCLOR 1254 (10 OR 30%), Method: PREINCUBATION
  mutagenic call: inactive; negative
Test System: AMES SALMONELLA TYPHIMURIUM, Strain/Indicator: TA100, Metabolic Activation: HAMSTER, LIVER, S-9, AROCLOR 1254 (10 OR 30%), Method: PREINCUBATION
  mutagenic call: inactive; negative
[2]
  mutagenic call: inactive; negative
Test System: AMES SALMONELLA TYPHIMURIUM, Strain/Indicator: TA100, Metabolic Activation: RAT, LIVER, S-9, AROCLOR 1254 (10 OR 30%), Method: PREINCUBATION
  mutagenic call: inactive; negative
Test System: AMES SALMONELLA TYPHIMURIUM, Strain/Indicator: TA1535, Metabolic Activation: HAMSTER, LIVER, S-9, AROCLOR 1254 (10 OR 30%), Method: PREINCUBATION
  mutagenic call: inactive; negative
Test System: AMES SALMONELLA TYPHIMURIUM, Strain/Indicator: TA1535, Metabolic Activation: NONE, Method: PREINCUBATION
  mutagenic call: inactive; negative
Test System: AMES SALMONELLA TYPHIMURIUM, Strain/Indicator: TA1535, Metabolic Activation: RAT, LIVER, S-9, AROCLOR 1254 (10 OR 30%), Method: PREINCUBATION
  mutagenic call: inactive; negative

## CCCC(=O)OCc1cccc([N+](=O)[O-])c1
[1]
  mutagenic call: inactive; negative
[2]
  mutagenic call: inactive; negative
Test System: AMES SALMONELLA TYPHIMURIUM, Strain/Indicator: TA100, Metabolic Activation: RAT, LIVER, S-9, AROCLOR 1254, Method: PREINCUBATION
  mutagenic call: inactive; negative

## O=[N+]([O-])c1cc2c3c(c1)CCc1cc([N+](=O)[O-])cc(c1-3)CC2
Test System: AMES SALMONELLA TYPHIMURIUM, Strain/Indicator: TA98(1,8-DNP6), Metabolic Activation: NONE, Method: STANDARD PLATE
  mutagenic call: active; positive
Test System: AMES SALMONELLA TYPHIMURIUM, Strain/Indicator: TA98(NR), Metabolic Activation: NONE, Method: STANDARD PLATE
  mutagenic call: active; positive
[3]
  mutagenic call: active; positive
